Values quoted from earlier work in patent publication US6756047B2, “Method and compositions for treating persistent pulmonary hypertension using aralkyl ester soft drugs” (The University of Toledo, priority 2000, dated 2004).

Assays:
[1] = eye examination use
[2] = long duration of action; used clinically

half-life (duration of action) [2]	SMILES	duration [1]
	CN1[C@@H]2CC[C@H]1C[C@@H](OC(=O)C(CO)c1ccccc1)C2 (some centres unmarked) [Atropine, atropine]	several hour
several hour	CC(C)NCC(O)COc1cccc2ccccc12 (centres unmarked) [Structure 1, propranolol]	
